ChEMBL document CHEMBL1201862, “PubChem BioAssay data set” (2004)
Calls of active or inactive are those of the source.

Key:
[1] = molecular target: T1, Sentrin-specific protease 8 (Homo sapiens, UniProt Q96LD8); assay type: functional
T1 sequence (Q96LD8 whole entry): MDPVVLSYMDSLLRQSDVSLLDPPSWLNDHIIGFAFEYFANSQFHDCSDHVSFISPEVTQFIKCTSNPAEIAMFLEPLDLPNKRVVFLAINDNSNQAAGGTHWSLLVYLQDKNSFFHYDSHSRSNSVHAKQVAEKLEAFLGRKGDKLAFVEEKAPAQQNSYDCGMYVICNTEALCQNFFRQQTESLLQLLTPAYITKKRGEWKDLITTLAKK

[2] = HIV-1 AD8 envelope cell-cell fusion blockers – cherry-pick, dose response (AID 652062); assay type: functional, cell-based;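 note: luciferase signal from cell-cell fusion driven by HIV-1 clade B AD8 Env; potency is for inhibitors of fusion seen as a drop in luminescence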
[3] = blockers of HIV-1 envelope-mediated cell-cell fusion – cherry-pick, dose response (AID 652057); assay type: functional, cell-based
[4] = Trypanosoma cruzi growth suppression in host cells – NIH3T3 host cells, beta-gal luminescence, confirmation (AID 2044); assay type: functional, cell-based;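 note: intracellular parasites grown in NIH/3T3 mouse fibroblasts as host cells; luminescent beta-galactosidase reporter signal from transgenic T. cruzi replicating inside host cells; inhibitors lower the luminescence signal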
[5] = inhibitors acting on PAX2 in cells – cell-based, plate reader, dry powder samples, selectivity assay for PAX8 inhibitor project, dose response (AID 743048); assay type: functional;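 note: HEK293 cells carrying a WT1 promoter luciferase reporter driven by expressed Pax2; potency is for inhibition of Pax2 driven reporter signal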

For `O=C(N/N=C1\C/C(=N\NC(=O)c2ccncc2)c2ccccc21)c1ccncc1`, which IC50 [1] is on record?
Its IC50 is 5020 nM (active).

Which AC50 [2] does the source give for `CC(=O)N(Cc1ccc(F)cc1)C1=C(NCCc2ccccc2)C(=O)c2ccccc2C1=O` here?
The AC50 was 8230 nM (active).

And the AC50 [3]?
The AC50 was 2450 nM (active).

For `CCCCC(=O)NC(c1ccccc1)c1ccc2cccnc2c1O` (stereo not given), which EC50 [4] is on record?
The EC50 was 502 nM (active).

What about the AC50 [5] of the same molecule?
The AC50 was 2150 nM (active).
